Experimental data taken from patent publication US11395816B2, “Corroles for treating human cytomegalovirus infections” (UNIVERSITE DE BOURGOGNE, priority 2017, dated 2022).
Read-outs that look alike come from different tables or passages of the source.

What was measured:
[1] = Toxicity assessment (cytotoxicity) on ARPE-19 cells; type: cell-based, human; conditions: human; ARPE-19 cells, 6 days of treatment, 0.1-50 μM tested
Protocol: (§1) hCMV infection was carried out on ARPE-19 cells seeded in 96 wells plate, in duplicate at one or two MOI (multiplicity of infection) and 7 concentrations of FNO2Cor, TPFCor, TpNO2Cor. • D0: MRC5/ARPE-19 cells seeded at 6 k per well in Corning Glass Bottom 96 well plates in 200 μL of DMEM without phenol red. • D1: cells were treated with FNO2Cor, TpNO2Cor, TPFCor (from 50 to 0.1 μM by two fold dilutions) in duplicate for the toxicity study. • D3: ARPE-19 cells were treated with Ganciclovir, FNO2Cor, TpNO2Cor, TPFCor (from 5 to 0.07 μM or from 10 to 0.15 μM by two fold dilutions) and were infected at different MOI in duplicate: MOI 10 or 2 for ARPE-19 cells. • D7: ARPE-19 cells at MOI 10 4 d post-infection were fixed with Formalin 10 min at room temperature. Cells were washed with 200 μL PBS and 100 μL PBS/Hoechst® 33342 ( 1/1000) per well. 96 well plates were kept at 4° C. in the dark until data acquisition Image acquisition and analysis for high content quantification was performed on a Thermo Cellomics Arrayscan™ VTI microscope using a modified compartmental analysis algorithm. • D13: ARPE19 cells at MOI 2 10 days post-infection were fixed and image acquisition and analysis were performed as previously described.
(§2) The toxicity of compounds FNO2Cor or TPFCor on ARPE-19 cells was evaluated after 6 days of treatment. 10 concentrations (50, 25, 12.5, 6.25, 3.1, 1.5, 0.75, 0.5, 0.25, 0.1 μM) of FNO2Cor and TPFCor were studied. The compound TpNO2Cor was used as positive control. Cell culture without treatment was used as negative control.
(§3) Cytotoxicity of compounds FNO2Cor, TPFCor and TpNO2Cor were assessed at different concentrations on ARPE-19 cells according to the method described on section 1.3. TpNO2Cor worked as positive reference.

[2] = system: ARPE-19 cells; test: as above; type: cell-based, human; conditions: for cytotoxicity (in words): ARPE-19 human retinal pigmented epithelium cells, FIG. 1 and Table I
Protocol: as §1, §2, §3

[3] = system: hCMV; test: hCMV infection assay in ARPE-19 cells (infection level and DNA replication by high content microscopy); type: cell-based, human cytomegalovirus
Protocol: ARPE-19 human retinal pigmented epithelium cells were used for hCMV infection assay.
Cells were grown in DMEM without phenol red (Sigma-Aldrich) 10% SVF, Pen-strep, 1× sodium pyruvate, 1× Glutamax.
as §1
On 4 d and 10 d post-infection (2 post-infection times), data acquisition per virus and cell line was done by high content microscopy to calculate infection level and DNA replication according to compound concentration.
Compounds FNO2Cor, TPFCor, TpNO2Cor and anti-hCMV drug Ganciclovir were assessed at 8 different concentrations in ARPE-19 cell culture on 4 days post-infection (FIGS. 2A, 2B) or on 10 days post-infection (FIGS. 3A, 3B) to evaluate their activity for inhibiting hCMV infection and their capacity for inhibiting hCMV replication in ARPE-19 cells.

[4] = already known, Gros et al., 2015; cited from earlier work
[5] = Human betaherpesvirus 5, ARPE-19, 96 h, read-out: IC50 ARPE (infection inhibition)
[6] = Human betaherpesvirus 5, ARPE-19, 96 h, read-out: IC50 ARPE (replication inhibition)
[7] = Human betaherpesvirus 5, ARPE-19, 240 h, read-out: IC50 ARPE (infection inhibition)
[8] = Human betaherpesvirus 5, ARPE-19, 240 h, read-out: IC50 ARPE (replication inhibition)
[9] = Table V, head prints 4 d PI, text says 10 d PI

SMILES	CC50 at 6 days [1] [µM]	cytotoxicity (in words) [2]	Selectivity index (infection inhibition) ([3]; 4 d PI, Table III)	Selectivity index (replication inhibition) ([3]; 4 d PI, Table III)	IC50 [3, 5] [µM]	IC50 [3, 6] [µM]	IC50 [3, 7] [µM]	IC50 [3, 8] [µM]	Selectivity index (infection inhibition) [3, 9]	Selectivity index (replication inhibition) [3, 9]	CC50 [2] [µM]	IC50 ([3]; 4 d PI, MOI 10, ARPE-19 cells, read-out: IC50 ARPE (infection inhibition)) [µM]	IC50 ([3]; 4 d PI, MOI 10, ARPE-19 cells, read-out: IC50 ARPE (replication inhibition)) [µM]	IC50 ([3]; 10 d PI, MOI 2, ARPE-19 cells, read-out: IC50 ARPE (infection inhibition)) [µM]	cytotoxicity (in words) [4]
O=[N+]([O-])c1ccc(F)c(-c2c3nc(c4ccc([nH]4)c(-c4cc([N+](=O)[O-])ccc4F)c4ccc([nH]4)c(-c4cc([N+](=O)[O-])ccc4F)c4ccc2[nH]4)C=C3)c1 [FNO2Cor, 5,10,15-Tris(2-fluoro-5-nitrophenyl)corrole]	50	safe	21.05	8.45	2.38	5.92	1.25	11.8	39.94	4.24	–	–	–	–	–
Fc1c(F)c(F)c(-c2c3nc(c4ccc([nH]4)c(-c4c(F)c(F)c(F)c(F)c4F)c4ccc([nH]4)c(-c4c(F)c(F)c(F)c(F)c4F)c4ccc2[nH]4)C=C3)c(F)c1F [TPFCor, 5,10,15-Tris(pentafluorophenyl)corrole]	26.1	safe	7.38	16.28	3.53	1.6	0.96	12.3	27.04	2.12	–	–	–	–	–
O=[N+]([O-])c1ccc(-c2c3nc(c4ccc([nH]4)c(-c4ccc([N+](=O)[O-])cc4)c4ccc([nH]4)c(-c4ccc([N+](=O)[O-])cc4)c4ccc2[nH]4)C=C3)cc1 [TpNO2Cor, 5,10,15-Tris(4-nitrophenyl)corrole, reference compound]	–	–	–	–	–	–	–	–	–	–	25	3.98	8.34	1.79	not cytotoxic
